Read-outs that look alike come from different tables or passages of the source.
Experiments:
[1] = In vitro microsomal stability, rat; format: in vitro ADME; conditions: for microsomal stability (in words) / % of compound remaining when incubated in rat liver microsomes with NADPH: rat liver microsomes
[2] = Pharmacokinetic studies in rats; format: in vivo, rat; conditions: for oral bioavailability / oral pharmacokinetics in rats (in words): oral dosing
Protocol: Pharmacokinetic studies on MDM2 inhibitors were carried out in rat. For comparison, the MDM2 inhibitor, AT-219, was also studied.

[3] = target: recombinant human His-tagged MDM2 protein (residues 1-118) (Homo sapiens (Human), UniProt Q00987); assay: Fluorescence-polarization MDM2 binding assay; conditions: Table 19A; FP binding assay; read-out: MDM2 IC50;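 further: fluorescence polarization read after three hours of incubation in potassium phosphate buffer containing bovine gamma globulin and Triton X-100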
[4] = system: Isogenic HCT-116 colon cancer cell lines; assay: cells; format: cell-based; conditions: Homo sapiens, cell growth;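 further: cells grown in 96-well plates in McCoy's 5A medium with 10% FBS, exposed to compound for 4 days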
Protocol: Cells were seeded in 96-well flat bottom cell culture plates at a density of 2−3×10^3 cells/well with compounds and incubated for 4 days.

[5] = system: cancer cell lines with wild-type p53 / mutated or deleted p53 (ATCC); assay: Cell growth assay (WST-8), other cancer cell lines; format: cell-based; conditions: Homo sapiens
[6] = In vitro microsomal stability, human; format: in vitro ADME
[7] = HCT-116, read-out: HCT-116 (p53-/-) IC50, Table 19A, HCT-116 p53-/-
[8] = HCT-116, read-out: HCT-116 (p53 wild-type) IC50, Table 19A, HCT-116 p53 wild-type
[9] = LNCaP, Table 19A, LNCAP cells, p53 wild-type, cell growth, read-out: LNCAP (p53 wild-type) IC50
[10] = PC-3, Table 19A, PC-3 cells, deleted p53, cell growth, read-out: PC-3 (deleted p53) IC50
[11] = SJSA-1, Table 19A, SJSA-1 cells, p53 wild-type, cell growth, read-out: SJSA-1 (p53 wild-type) IC50

recombinant human His-tagged MDM2 protein (residues 1-118), sequence (Q00987 1-118): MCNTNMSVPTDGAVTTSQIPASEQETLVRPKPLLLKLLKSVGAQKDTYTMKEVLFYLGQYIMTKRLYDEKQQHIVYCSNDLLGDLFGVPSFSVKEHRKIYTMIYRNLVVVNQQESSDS

| Structure (SMILES) | % of compound remaining when incubated in rat liver microsomes ([1]; Table 16, 0 min) [%] | % of compound remaining when incubated in rat liver microsomes ([1]; Table 16, 4 min) [%] | % of compound remaining when incubated in rat liver microsomes ([1]; Table 16, 6 min) [%] | % of compound remaining when incubated in rat liver microsomes ([1]; Table 16, 10 min) [%] | % of compound remaining when incubated in rat liver microsomes ([1]; Table 16, 15 min) [%] | % of compound remaining when incubated in rat liver microsomes ([1]; Table 16, 30 min) [%] | microsomal stability (in words) [1] | % F ([2]; male rats, oral dose 25 mg/kg) [%] | Cmax ([2]; male rats, oral dose 25 mg/kg) [ng/mL] | T1/2 ([2]; male rats, oral dose 25 mg/kg) [min] | oral bioavailability / oral pharmacokinetics in rats (in words) [2] | IC50 [3] [nM] | IC50 [4, 7] [nM] | IC50 [4, 8] [nM] | IC50 [5, 9] [nM] | IC50 [5, 10] [nM] | IC50 [5, 11] [nM] | also measured |
| --- | --- | --- | --- | --- | --- | --- | --- | --- | --- | --- | --- | --- | --- | --- | --- | --- | --- | --- |
| CN1CCN(CCNC(=O)C2NC(CC(C)(C)C)C3(C(=O)Nc4cc(Cl)ccc43)C2c2cccc(Cl)c2F)CC1 (centres unmarked) [MI-126] | 100 | 88.4 | 77.2 | 65.6 | 62.3 | 60.4 | improved rat microsomal stability over MI-219 | 31 | 274 ± 82 | 228 ± 30 | much inferior oral pharmacokinetic parameters | – | – | – | – | – | – | – |
| CC(C)(C)C[C@H]1N[C@@H](C(=O)NCCC2CCC(O)C2)[C@H](c2cccc(Cl)c2)[C@@]12C(=O)Nc1cc(Cl)c(F)cc12 (some centres unmarked) [MI-225] | 100 | 63.1 | 56.6 | 44.4 | 30.9 | 30.2 | inferior microsomal stability to MI-219 | 44 | 1913 ± 312 | 90.6 ± 7.2 | good oral bioavailability | – | – | – | – | – | – | AUC(0-t) ([2]; male rats, oral dose 25 mg/kg): 7207 ± 1492 |
| CN1CCC(CCNC(=O)C2NC(CC(C)(C)C)C3(C(=O)Nc4cc(Cl)ccc43)C2c2cccc(Cl)c2F)CC1 (centres unmarked) [MI-122] | 100 | 96.3 | 95.6 | 87.8 | 86.5 | 82.7 | improved rat microsomal stability over MI-219 | 14 | 120 ± 112 | 426 ± 108 | much inferior oral pharmacokinetic parameters | – | – | – | – | – | – | – |
| CC(C)(C)C[C@H]1N[C@@H](C(=O)N[C@H]2CC[C@@H](O)C2)[C@H](c2cccc(Cl)c2)[C@@]12C(=O)Nc1cc(Cl)c(F)cc12 [MI-519-27] | – | – | – | – | – | – | – | – | – | – | – | < 1000 | > 10000 | < 2000 | < 2000 | > 5000 | < 3000 | % of compound remaining when incubated in rat liver microsomes with NADPH ([1]; 0 min): 100.00%; % of compound remaining when incubated in rat liver microsomes with NADPH ([1]; 5 min): 57.28%; % of compound remaining when incubated in rat liver microsomes with NADPH ([1]; 10 min): 31.78%; % of compound remaining when incubated in rat liver microsomes with NADPH ([1]; 15 min): 19.34%; % of compound remaining when incubated in rat liver microsomes with NADPH ([1]; 30 min): 5.81%; % of compound remaining when incubated in rat liver microsomes with NADPH ([1]; 45 min): 2.49%; % of compound remaining when incubated in rat liver microsomes with NADPH ([1]; 60 min): 2.13%; half-life ([1]; rat, liver microsomes, rat liver microsomes with NADPH): 6.05 min; % of compound remaining when incubated in human liver microsomes with NADPH ([6]; 0 min): 100.00%; % of compound remaining when incubated in human liver microsomes with NADPH ([6]; 5 min): 52.96%; % of compound remaining when incubated in human liver microsomes with NADPH ([6]; 10 min): 25.03%; % of compound remaining when incubated in human liver microsomes with NADPH ([6]; 15 min): 11.38%; % of compound remaining when incubated in human liver microsomes with NADPH ([6]; 30 min): 2.30%; % of compound remaining when incubated in human liver microsomes with NADPH ([6]; 45 min): 1.42%; % of compound remaining when incubated in human liver microsomes with NADPH ([6]; 60 min): 0.77%; half-life ([6]; human, liver microsomes, human liver microsomes with NADPH): 5 min |
| CC(C)(C)C[C@H]1N[C@@H](C(=O)NCCCN2CCN(C3CC3)CC2)[C@H](c2cccc(Cl)c2F)[C@@]12C(=O)Nc1cc(Cl)ccc12 [MI-519-47] | – | – | – | – | – | – | – | – | – | – | – | < 10000 | 7800 ± 900 | 1100 ± 200 | 1100 ± 300 | 5700 ± 600 | 1100 | % of compound remaining when incubated in rat liver microsomes ([1]; Table 17, 0 min): 100%; % of compound remaining when incubated in rat liver microsomes ([1]; Table 17, 4 min): 80.1%; % of compound remaining when incubated in rat liver microsomes ([1]; Table 17, 6 min): 61.1%; % of compound remaining when incubated in rat liver microsomes ([1]; Table 17, 10 min): 45.3%; % of compound remaining when incubated in rat liver microsomes ([1]; Table 17, 15 min): 38.1%; % of compound remaining when incubated in rat liver microsomes ([1]; Table 17, 30 min): 34.3% |
| CC(C)(C)C[C@H]1N[C@@H](C(=O)NCCCN2CCCC2)[C@H](c2cccc(Cl)c2)[C@@]12C(=O)Nc1cc(Cl)c(F)cc12 [MI-519-38] | – | – | – | – | – | – | – | – | – | – | – | < 1000 | 5300 ± 1600 | 1400 ± 600 | 1000 ± 300 | 3100 ± 400 | 2100 ± 100 | % of compound remaining when incubated in rat liver microsomes at indicated time (min) ([1]; 0 min): 100%; % of compound remaining when incubated in rat liver microsomes at indicated time (min) ([1]; 4 min): 91.5%; % of compound remaining when incubated in rat liver microsomes at indicated time (min) ([1]; 6 min): 85.4%; % of compound remaining when incubated in rat liver microsomes at indicated time (min) ([1]; 10 min): 82.4%; % of compound remaining when incubated in rat liver microsomes at indicated time (min) ([1]; 15 min): 80.8%; % of compound remaining when incubated in rat liver microsomes at indicated time (min) ([1]; 30 min): 73.2% |
